Converted amounts (≈) assume the structure as drawn.
Experiments:
[1] = tested on: P. aeruginosa; assay: In vitro antibacterial activity (MIC, minimal bactericidal concentration); type: cell-based, Pseudomonas aeruginosa; settings: CFU enumeration
[2] = tested on: B16-F10-Luc2 melanoma lung metastasis; assay: In vivo efficacy in a lung metastasis model; set-up: species or system C57BL/6 mice
Text: This model was established by intravenously injecting 1×10^5 B16-F10-Luc2 cells through the tail vein of C57BL/6 mice. The treatment regimen consisted of four 75-μg DOX doses given every other day, with the first dose administered one day after the tumor challenge. […] We also quantified the overall lung metastasis burden based on the bioluminescence intensity in the lungs (FIG. 16d). […] Additionally, we monitored for changes in body weight during the entire treatment period (FIG. 16g).
In vivo efficacy in a lung metastasis model. […] The mice received treatment with free DOX, NP(DOX) and algae-NP(DOX)-robot through intratracheal instillation on days 1, 3, 5 and 7 after tumor cell inoculation. Mice without treatment were used as controls. To monitor tumor growth, on days 12, 16, 20, 24 and 28 after tumor cell inoculation, the mice were intraperitoneally administered 200 μl of 5 mg ml^−1 D-luciferin (Syd Labs) in DPBS (Gibco). Bioluminescence signals were detected using a PerkinElmer Xenogen IVIS 200 system. The body weight and survival of each mouse were also monitored throughout the study.

[3] = In vivo safety evaluation of algae-NP(DOX)-robot; set-up: species or system C57BL/6 mice
Procedure: In vivo toxicity assessment of algae-NP(DOX)-robot. Finally, the toxicity profile of the algae-NP(DOX)-robot was assessed. Healthy mice were subjected to intratracheal administration using one of three different treatments: algae-NP(DOX)-robot, free DOX, and NP(DOX). Each mouse received a total of four 75-μg DOX doses given every other day. A blood count and a comprehensive metabolic panel were performed one day after the final injection to assess the effects of these treatments.
In vivo safety evaluation. Healthy female C57BL/6 mice were intratracheally administered with free DOX, NP(DOX) and algae-NP(DOX)-robot every other day for a total of four injections. Mice without treatment were used as controls. At 24 h following the last treatment, blood samples were collected via submandibular puncture into Microvette 100 EDTA K3E tubes (Sarstedt) for blood cell quantification. To collect serum for comprehensive blood chemistry analysis, blood samples were obtained without any anticoagulant, placed at room temperature for 30 min, and centrifuged at 3000 g for 10 min. Both the blood cell quantification and blood chemistry analyses were performed by the Animal Care Program Diagnostic Services Laboratory at UCSD. For histological analysis, the heart, liver, spleen, lungs and kidneys were excised and fixed in phosphate-buffered 10% formalin (Fisher Chemical), followed by sectioning and hematoxylin and eosin staining. These histological procedures were conducted by the Moores Cancer Center Tissue Technology Shared Resource.

SMILES | minimal bactericidal concentration [1] | median survival time ([2]; four 75-μg DOX doses intratracheal) | body weight during treatment ([2]; mouse, in vivo) | liver and kidney biomarkers (ALB, ALP, ALT, BUN, TBIL, CRE) ([3]; four 75-μg DOX doses, one day after final dose) | histology of heart, liver, spleen, lungs and kidneys ([3]; mouse, in vivo) | other biomarkers (CA, GLU, PHOS, K+, Na+, TP) ([3]; mouse, in vivo) | white blood cells, red blood cells and platelets ([3]; mouse, in vivo)
O=C(O)c1cn(C2CC2)c2cc(N3CCNCC3)c(F)cc2c1=O [free Cip, ciprofloxacin] | 0.125 µg/mL (≈ 0.377 µM) | – | – | – | – | – | –
COc1cccc2c1C(=O)c1c(O)c3c(c(O)c1C2=O)C[C@@](O)(C(=O)CO)C[C@@H]3O[C@H]1C[C@H](N)[C@H](O)[C@H](C)O1 [free DOX, doxorubicin] | – | 27 days | pronounced decline in body weight | no abnormalities | no observable damage | within their normal ranges | elevated platelet levels
